Measurements: US9630957B2, “2,3-butanediamide epoxide compound and preparation method and use thereof” (Institute of Pharmacology and Toxicology Academy of …, priority 2014, dated 2017)
Values after ≈ are worked out from the molar mass of the structure shown.

How the values were obtained:
[1] = system: enterovirus EV71 (BrCr strain); assay: Activity screening for anti-enterovirus EV71: inhibition of cytopathic effect in Vero cells; format: cell-based; conditions: for IC50: 100TCID50, Vero cells, CPE read when virus control reaches 4+, read-out: IC50 (half inhibitory concentration for enterovirus EV71); for SI (Selectivity Index = TC50/IC50): Vero cells
Protocol: Test item: Activity screening of the compounds for anti-enterovirus EV71
Test principle: Vero cells are used as viral host. The inhibition of the compound of the invention on the degree of cytopathic effect of Vero cells caused by enterovirus virus EV71 is determined.
1. Virus strain: enterovirus EV71 (BrCr, American Type Culture Collection, ATCC)
(§1) 2. Sample treatment: the compounds of the present invention are dissolved in DMSO or diluent to prepare stock solution which is stored at −20° C. The stock solution is formulated to suitable incipient concentration with culture solution immediately before use, and then 3-fold diluted with the culture solution, 8 degrees of dilution each.
3. Positive control drug: Pirodavir (LGM Pharma), which is a broad-spectrum anti-viral inhibitor.
(§2) 4. Test Method: Vero cells are seeded into a 96-well culture plate, at 5% CO2, and cultured at 37° C. for 16 hours. The Vero cells are added with different dilutions of drugs, and the degree of cytopathic effect (CPE) in each group is observed. The half toxic concentration (TC50) of each sample for Vero cells is calculated. Vero cells are added with 100TCID50 enterovirus EV71 respectively, and the virus solution is discarded after adsorption at 37° C. for 1 hour, and then drugs with various degrees of dilution are added respectively. Virus control and cell control are set and incubated at 37° C. The degree of cytopathic effect (CPE) in each group is observed when the degree of cytopathic effect (CPE) of virus control group reaches 4+. The half inhibitory concentration (IC50) of each sample for enterovirus EV71 are calculated. Selectivity Index (SI) is calculated according to the following equation: SI=TC50/IC50.

Vero cells = assay: Cytotoxicity of the compounds for Vero cells (CPE observation, TC50); format: cell-based; conditions: no virus
Protocol: as §1, §2

SMILES | IC50 [1] [µg/mL] | SI (Selectivity Index = TC50/IC50) [1] | TC50 (half toxic concentration for Vero cells) (Vero cells) [µg/mL] | melting point [°C]
COc1ccc(NC(=O)[C@H]2O[C@@H]2C(=O)N(Cc2ccccc2)c2ccc(C(=O)Nc3nc4ccccc4s3)cc2)cc1OC [Compound 39, (2S,3S)—N^2-(4-(benzo[d]thiazol-2-ylcarbamoyl)phenyl)-N^2-benzyl-N^3-(3,4-dimethoxyphenyl)-2,3-epoxybutanediamide] | 4.28 (≈ 7.03 µM) | 7.49 | 32.05 | 224.5 to 226
O=C(Nc1nc2ccccc2s1)c1ccc(N(Cc2ccc(F)cc2)C(=O)[C@H]2O[C@@H]2C(=O)Nc2ccc(F)c(F)c2)cc1 [Compound 22, (2S,3S)—N^2-(4-(benzo[d]thiazol-2-ylcarbamoyl)phenyl)-N^3-(3,4-difluorophenyl)-N^2-(4-fluorobenzyl)-2,3-epoxybutanediamide] | > 0.27 |  | 1.19 | 219.2 to 219.7
O=C(Nc1ccc(F)cc1)[C@H]1O[C@@H]1C(=O)N(Cc1ccccc1)c1ccccc1 [Compound 5, (2S,3S)—N^2-benzyl-N^2-phenyl-N^3-(4-fluorophenyl)-2,3-epoxybutanediamide] | 2.47 (≈ 6.33 µM) | 4.32 | 10.68 | 153.8 to 154.7
COC(=O)c1csc(NC(=O)[C@H]2O[C@@H]2C(=O)N(Cc2ccc(F)cc2)c2ccc(C(=O)Nc3nc4ccccc4s3)cc2)n1 [Compound 34, (2S,3S)—N^2-(4-(benzo[d]thiazol-2-ylcarbamoyl)phenyl)-N^2-(4-fluorobenzyl)-N^3-(4-methoxycarbonylthiazol-2-yl)-2,3-epoxybutanediamide] | > 0.82 |  | 1.43 | 196.3 to 197.1
O=C(Nc1ccccc1Br)[C@H]1O[C@@H]1C(=O)N(Cc1ccccc1)c1ccccc1 [Compound 15, (2S,3S)—N^2-benzyl-N^2-phenyl-N^3-(2-bromophenyl)-2,3-epoxybutanediamide] | 0.47 (≈ 1.04 µM) | 3.04 | 1.43 | 113.2 to 114.3
O=C(Nc1nc2ccccc2s1)c1ccc(N(Cc2ccc(F)cc2)C(=O)[C@H]2O[C@@H]2C(=O)O)cc1 [Compound 16, (2S,3S)-3-((4-(benzo[d]thiazol-2-ylcarbamoyl)phenyl)(4-fluorobenzyl)carbamoyl)oxirane-2-carboxylic acid] | > 2.47 |  | 17.25 | 200.6 to 201.3
O=C(Nc1cccc(Cl)c1)[C@H]1O[C@@H]1C(=O)N(Cc1ccccc1)c1ccccc1 [Compound 8, (2S,3S)—N^2-benzyl-N^2-phenyl-N^3-(3-chlorophenyl)-2,3-epoxybutanediamide] | 0.27 (≈ 0.664 µM) | 15.85 | 4.28 | 179.2 to 179.6
Cc1c(Cl)cccc1NC(=O)[C@H]1O[C@@H]1C(=O)N(Cc1ccc(F)cc1)c1ccc(C(=O)Nc2nc3ccccc3s2)cc1 [Compound 28, (2S,3S)—N^2-(4-(benzo[d]thiazol-2-ylcarbamoyl)phenyl)-N^3-(2-methyl-3-chlorophenyl)-N^2-(4-fluorobenzyl)-2,3-epoxybutanediamide] | > 0.27 |  | 0.82 | 210.3 to 211.1
COc1cccc(NC(=O)[C@H]2O[C@@H]2C(=O)N(Cc2ccccc2)c2ccccc2)c1 [Compound 7, (2S,3S)—N^2-benzyl-N^2-phenyl-N^3-(3-methoxyphenyl)-2,3-epoxybutanediamide] | 0.27 (≈ 0.671 µM) | 15.85 | 4.28 | 130.7 to 131.7
O=C(Nc1nc2ccccc2s1)c1ccc(N(Cc2ccc(F)cc2)C(=O)[C@H]2O[C@@H]2C(=O)Nc2cccc(F)c2)cc1 [Compound 30, (2S,3S)—N^2-(4-(benzo[d]thiazol-2-ylcarbamoyl)phenyl)-N^3-(3-fluorophenyl)-N^2-(4-fluorobenzyl)-2,3-epoxybutanediamide] | 0.36 (≈ 0.616 µM) | 3.97 | 1.43 | 202.4 to 203.1
O=C(Nc1nccs1)[C@H]1O[C@@H]1C(=O)N(Cc1ccccc1)c1ccccc1 [Compound 2, (2S,3S)—N^2-benzyl-N^2-phenyl-N^3-(2-thiazolyl)-2,3-epoxybutanediamide] | 2.47 (≈ 6.51 µM) | 4.32 | 10.68 | 146.6 to 147.4
O=C(Nc1nc2ccccc2s1)c1ccc(N(Cc2ccc(F)cc2)C(=O)[C@H]2O[C@@H]2C(=O)Nc2ccc(F)cc2)cc1 [Compound 29, (2S,3S)—N^2-(4-(benzo[d]thiazol-2-ylcarbamoyl)phenyl)-N^3-(4-fluorophenyl)-N^2-(4-fluorobenzyl)-2,3-epoxybutanediamide] | > 0.82 |  | 1.43 | 199.7 to 200.5
Cc1c(Cl)cccc1NC(=O)[C@H]1O[C@@H]1C(=O)N(Cc1ccccc1)c1ccccc1 [Compound 13, (2S,3S)—N^2-benzyl-N^2-phenyl-N^3-(2-methyl-3-chlorophenyl)-2,3-epoxybutanediamide] | > 0.27 |  | 1.19 | 119.4 to 120.2
CCOC(=O)c1csc(NC(=O)[C@H]2O[C@@H]2C(=O)N(Cc2ccc(F)cc2)c2ccc(C(=O)Nc3nc4ccccc4s3)cc2)n1 [Compound 33, (2S,3S)—N^2-(4-(benzo[d]thiazol-2-ylcarbamoyl)phenyl)-N^2-(4-fluorobenzyl)-N^3-(4-ethoxycarbonylthiazol-2-yl)-2,3-epoxybutanediamide] | > 0.27 |  | 1.19 | 220.5 to 221.6
O=C(Nc1nc2ccccc2s1)c1ccc(N(Cc2ccccc2)C(=O)[C@H]2O[C@@H]2C(=O)Nc2ccc(Cl)c(Cl)c2)cc1 [Compound 40, (2S,3S)—N^2-(4-(benzo[d]thiazol-2-ylcarbamoyl)phenyl)-N^2-benzyl-N^3-(3,4-dichlorophenyl)-2,3-epoxybutanediamide] | > 0.82 |  | 1.43 | 217.6 to 218.3
O=C(Nc1nc2ccccc2s1)c1ccc(N(Cc2ccc(F)cc2)C(=O)[C@H]2O[C@@H]2C(=O)Nc2ccc(Cl)c(Cl)c2)cc1 [Compound 31, (2S,3S)—N^2-(4-(benzo[d]thiazol-2-ylcarbamoyl)phenyl)-N^3-(3,4-dichlorophenyl)-N^2-(4-fluorobenzyl)-2,3-epoxybutanediamide] | > 0.82 |  | 1.43 | 218.2 to 219.1
O=C(Nc1nc2ccccc2s1)c1ccc(N(Cc2ccc(F)cc2)C(=O)[C@H]2O[C@@H]2C(=O)Nc2cccc(Cl)c2)cc1 [Compound 23, (2S,3S)—N^2-(4-(benzo[d]thiazol-2-ylcarbamoyl)phenyl)-N^3-(3-chlorophenyl)-N^2-(4-fluorobenzyl)-2,3-epoxybutanediamide] | > 0.82 |  | 1.43 | 209.8 to 210.3
O=C(Nc1ccc(Cl)cc1)[C@H]1O[C@@H]1C(=O)N(Cc1ccccc1)c1ccccc1 [Compound 12, (2S,3S)—N^2-benzyl-N^2-phenyl-N^3-(4-chlorophenyl)-2,3-epoxybutanediamide] | 0.23 (≈ 0.565 µM) | 46.43 | 10.68 | 175.2 to 175.8
COC(=O)c1cnc(NC(=O)[C@H]2O[C@@H]2C(=O)N(Cc2ccc(F)cc2)c2ccc(C(=O)Nc3nc4ccccc4s3)cc2)s1 [Compound 36, (2S,3S)—N^2-(4-(benzo[d]thiazol-2-ylcarbamoyl)phenyl)-N^2-(4-fluorobenzyl)-N^3-(5-methoxycarbonylthiazol-2-yl)-2,3-epoxybutanediamide] | > 0.82 |  | 3.56 | 219.8 to 220.2
O=C(Nc1ccc(Cl)c(Cl)c1)[C@H]1O[C@@H]1C(=O)N(Cc1ccccc1)c1ccccc1 [Compound 3, (2S,3S)—N^2-benzyl-N^2-phenyl-N^3-(3,4-dichlorophenyl)-2,3-epoxybutanediamide] | 2.47 (≈ 5.6 µM) | 2.08 | 5.14 | 174.5 to 175.7
O=C(Nc1cccc(Cl)c1Cl)[C@H]1O[C@@H]1C(=O)N(Cc1ccccc1)c1ccccc1 [Compound 10, (2S,3S)—N^2-benzyl-N^2-phenyl-N^3-(2,3-dichlorophenyl)-2,3-epoxybutanediamide] | 0.15 (≈ 0.34 µM) | 9.53 | 1.43 | 115.7 to 115.8
